In US9975878B2, “Substituted triazine BMI-1 inhibitors” (PTC Therapeutics, Inc., priority 2013, dated 2018):

Columns and labels:
Bmi-1 protein = assay: Sandwich ELISA Assay: Bmi-1 protein level in HT-1080 cells treated with test compounds; format: cell-based
In short: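 HT-1080 cells exposed to compounds (final DMSO 0.5%) for 40-48 h at 37° C, 5% CO2, then lysed. Bmi-1 quantified by sandwich ELISA (mouse anti-Bmi-1 capture, rabbit anti-Bmi-1 detection, HRP anti-rabbit, TMB), read at OD450 with OD570 reference, against recombinant GST-Bmi-1 standard curve (0-8000 pg/mL).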

Nc1nc(Nc2ccc(OC(F)F)cc2)nc(-n2c(C3CC3)nc3c(F)cc(F)cc32)n1 [Cpd 89, 6-(2-cyclopropyl-4,6-difluoro-1H-benzimidazol-1-yl)-N-[4-(difluoromethoxy)phenyl]-1,3,5-triazine-2,4-diamine]
EC50 (Bmi-1 protein): 10 to 100 nM | melting point: 181 to 183 °C

Nc1nc(Nc2ccc(OC(F)F)c(F)c2)nc(-n2c(C3CC3)nc3c(F)cc(F)cc32)n1 [Cpd 90, 6-(2-cyclopropyl-4,6-difluoro-1H-benzimidazol-1-yl)-N-[4-(difluoromethoxy)-3-fluorophenyl]-1,3,5-triazine-2,4-diamine]
EC50 (Bmi-1 protein): 10 to 100 nM | melting point: 196 to 198 °C

Nc1nc(Nc2ccc(OC(F)F)nc2)nc(-n2c(C3CC3)nc3c(F)cc(F)cc32)n1 [Cpd 91, 6-(2-cyclopropyl-4,6-difluoro-1H-benzimidazol-1-yl)-N-[6-(difluoromethoxy)pyridin-3-yl]-1,3,5-triazine-2,4-diamine]
EC50 (Bmi-1 protein): 10 to 100 nM | melting point: 128 to 130 °C

Nc1nc(Nc2ccc(OC(F)(F)F)cc2)nc(-n2c(C3CC3)nc3c(F)cc(F)cc32)n1 [Cpd 92, 6-(2-cyclopropyl-4,6-difluoro-1H-benzimidazol-1-yl)-N-[4-(trifluoromethoxy)phenyl]-1,3,5-triazine-2,4-diamine]
EC50 (Bmi-1 protein): 100 to 3000 nM | melting point: 213 to 215 °C

Nc1nc(Nc2ccc(C(F)(F)F)cc2)nc(-n2c(C(F)F)nc3ccccc32)n1 [Cpd 102, 6-[2-(difluoromethyl)-1H-benzimidazol-1-yl]-N-[4-(trifluoromethyl)phenyl]-1,3,5-triazine-2,4-diamine]
EC50 (Bmi-1 protein): 10 to 100 nM | melting point: 197 to 199 °C

Nc1nc(Nc2ccc(OC(F)F)cc2)nc(-n2c(C(F)F)nc3ccccc32)n1 [Cpd 103, N-[4-(difluoromethoxy)phenyl]-6-[2-(difluoromethyl)-1H-benzimidazol-1-yl]-1,3,5-triazine-2,4-diamine]
EC50 (Bmi-1 protein): 10 to 100 nM | melting point: 197 to 199 °C

Nc1nc(Nc2ccc(OC(F)F)c(F)c2)nc(-n2c(C(F)F)nc3ccccc32)n1 [Cpd 104, N-[4-(difluoromethoxy)-3-fluorophenyl]-6-[2-(difluoromethyl)-1H-benzimidazol-1-yl]-1,3,5-triazine-2,4-diamine]
EC50 (Bmi-1 protein): 10 to 100 nM | melting point: 201 to 203 °C

Nc1nc(Nc2ccc(OC(F)(F)F)cc2)nc(-n2c(C(F)F)nc3ccccc32)n1 [Cpd 106, 6-[2-(difluoromethyl)-1H-benzimidazol-1-yl]-N-[4-(trifluoromethoxy)phenyl]-1,3,5-triazine-2,4-diamine]
EC50 (Bmi-1 protein): 10 to 100 nM | melting point: 138 to 139 °C

Nc1nc(Nc2ccc(OC(F)F)cc2)nc(-n2c(CF)nc3ccccc32)n1 [Cpd 108, N-[4-(difluoromethoxy)phenyl]-6-[2-(fluoromethyl)-1H-benzimidazol-1-yl]-1,3,5-triazine-2,4-diamine]
EC50 (Bmi-1 protein): 10 to 100 nM | melting point: 166 to 168 °C

Nc1nc(Nc2ccc(OC(F)F)c(F)c2)nc(-n2c(CF)nc3ccccc32)n1 [Cpd 109, N-[4-(difluoromethoxy)-3-fluorophenyl]-6-[2-(fluoromethyl)-1H-benzimidazol-1-yl]-1,3,5-triazine-2,4-diamine]
EC50 (Bmi-1 protein): 10 to 100 nM | melting point: 166 to 168 °C

Nc1nc(Nc2ccc(C(F)(F)F)nc2)nc(-n2c(CF)nc3ccccc32)n1 [Cpd 111, 6-[2-(fluoromethyl)-1H-benzimidazol-1-yl]-N-[6-(trifluoromethyl)pyridin-3-yl]-1,3,5-triazine-2,4-diamine]
EC50 (Bmi-1 protein): 100 to 3000 nM | melting point: 178 to 180 °C

Nc1nc(Nc2ccc(Br)cc2)nc(-n2c(C3CC3)nc3cc(F)ccc32)n1 [Cpd 222, N-(4-bromophenyl)-6-(2-cyclopropyl-5-fluoro-1H-benzimidazol-1-yl)-1,3,5-triazine-2,4-diamine]
EC50 (Bmi-1 protein): 10 to 100 nM

CCc1nc2ccc(F)cc2n1-c1nc(N)nc(Nc2ccc(Br)cc2)n1 [Cpd 223, N-(4-bromophenyl)-6-(2-ethyl-6-fluoro-1H-benzimidazol-1-yl)-1,3,5-triazine-2,4-diamine]
EC50 (Bmi-1 protein): 10 to 100 nM

Nc1nc(Nc2ccc(Br)cc2)nc(-n2c(C3CC3)nc3ccccc32)n1 [Cpd 224, N-(4-bromophenyl)-6-(2-cyclopropyl-1H-benzimidazol-1-yl)-1,3,5-triazine-2,4-diamine]
EC50 (Bmi-1 protein): 1 to 10 nM

Nc1nc(Nc2ccc(OC(F)(F)F)cc2)nc(-n2c(C3CC3)nc3ccccc32)n1 [Cpd 225, 6-(2-cyclopropyl-1H-benzimidazol-1-yl)-N-[4-(trifluoromethoxy)phenyl]-1,3,5-triazine-2,4-diamine]
EC50 (Bmi-1 protein): 100 to 3000 nM

CSc1ccc(Nc2nc(N)nc(-n3c(C)nc4ccc(F)cc43)n2)cc1 [Cpd 226, 6-(6-fluoro-2-methyl-1H-benzimidazol-1-yl)-N-[4-(methylsulfanyl)phenyl]-1,3,5-triazine-2,4-diamine]
EC50 (Bmi-1 protein): 10 to 100 nM

CCc1nc2c(F)cccc2n1-c1nc(N)nc(Nc2ccc(SC)cc2)n1 [Cpd 227, 6-(2-ethyl-4-fluoro-1H-benzimidazol-1-yl)-N-[4-(methylsulfanyl)phenyl]-1,3,5-triazine-2,4-diamine]
EC50 (Bmi-1 protein): 1 to 10 nM
